Test system: mutant MTPfo-4
Assay: Tolerance to other acids by OD600, mutant MTPfo-4
Type: cell-based, Saccharomyces cerevisiae
Conditions: pH 2.44, OD600 over 72 h
Method: To analyze the tolerance of the mutant MTPfo-4 to other acids, 10 acids, including 2 inorganic acids of HCl and H3PO4, and 8 organic acids of lactic acid, malic acid, fumaric acid, succinate acid, tartaric acid, furoic acid, gluconic acid, and citric acid, were added exogenously in the present invention to analyze the acid tolerance of cells. The initial pH was controlled to 2.44. The cells were sampled every 12 h for consecutive 72 h. The acid tolerance of cells was analyzed by determining the OD600. […] The cells were sampled every 12 h for consecutive 72 h. The acid resistance of the cells was analyzed again by determining the OD600.

SMILES | effect of the acid on the mutant MTPfo-4
O=C(O)c1ccco1 [furoic acid] | inhibitory effect
O=C(O)C(O)C(O)C(=O)O (stereo not shown) [tartaric acid] | inhibitory effect
O=C(O)CCC(=O)O [succinic acid] | inhibitory effect
O=C(O)/C=C/C(=O)O [fumaric acid] | inhibitory effect

— US11618909B2, “Acid-tolerant Saccharomyces cerevisiae and use thereof” (JIANGNAN UNIVERSITY, priority 2020, dated 2023)
